# Measurements as given in ChEMBL document CHEMBL1134231, “Peptidomimetic inhibitors of protein farnesyltransferase show potent antimalarial activity” (Bioorg Med Chem Lett, 2001).
# What was measured:
# [1] = target: Protein farnesyltransferase (Homo sapiens, UniProt P49354+P49356); test: Inhibition of mammalian Farnesyltransferase; type: protein-complex assay
# [2] = system: Plasmodium falciparum; test: Growth inhibition of Plasmodium falciparum 3D7 infected red blood cells; type: functional; settings: read-out: ED50 (the source's name)
# [3] = target: Protein farnesyltransferase (Mus musculus, UniProt Q61239+Q8K2I1); test: Inhibition of mammalian H-Ras processing in NIH 3T3 cells; type: functional, cell-based, NIH3T3
# [4] = system: Plasmodium falciparum; test: Percent growth inhibition of Plasmodium falciparum 3D7 in erythrocytes at 20 uM; type: functional
# [5] = system: Plasmodium falciparum; test: Inhibition of Plasmodium falciparum 3D7 infected red blood cells; type: functional; settings: read-out: ED50 (the source's name)
Compound,IC50 [1] [nM],EC50 [2] [µg/mL],IC50 [3] [nM],inhibition at 20 µM [4] [%],EC50 [5] [µg/mL]
N#CCCNC(=O)c1ccc(NCc2cncn2Cc2ccc(C#N)cc2)cc1-c1ccccc1,220,10,–,–,–
CSCC[C@H](NC(=O)c1ccc(NCc2cn(CC3CCCCC3)cn2)cc1-c1ccccc1)C(=O)O,780,> 30,–,–,–
CC(C)NC(=O)c1ccc(NCc2cncn2Cc2ccc(C#N)cc2)cc1-c1ccccc1,380,3,> 100000,–,–
CSCC[C@H](NC(=O)c1ccc(CNCc2c[nH]cn2)cc1-c1ccccc1C)C(=O)O,1,> 30,200,0,–
CSCC[C@H](NC(=O)c1ccc(NCc2cncn2Cc2ccc(-c3ccccc3)cc2)cc1-c1ccccc1)C(=O)O,260,5,> 100000,89.1,–
COC(=O)[C@H](CCSC)NC(=O)c1ccc(CNCc2c[nH]cn2)cc1-c1ccccc1C,34000,2,20,99,–
CSCC[C@H](NC(=O)c1ccc(NCc2cncn2Cc2ccc(C#N)cc2)cc1-c1ccccc1)C(=O)O,7.2,13,5000,86.3,–
CSCC[C@H](NC(=O)c1ccc(NCc2cncn2CC2CCCCC2)cc1-c1ccccc1)C(=O)O,41,10,–,72,–
N#Cc1ccc(Cn2cncc2CNc2ccc(C(=O)NCc3ccccc3)c(-c3ccccc3)c2)cc1,640,4,–,–,–
N#Cc1ccc(Cn2cncc2CNc2ccc(C(=O)NCC3CCCCC3)c(-c3ccccc3)c2)cc1,3100,3,> 100000,–,–
CSCC[C@H](NC(=O)c1ccc(NC[C@@H](N)CS)cc1-c1ccccc1)C(=O)O,–,–,–,–,> 30
CSCC[C@H](NC(=O)c1ccc(NCc2cn(Cc3cccc4ccccc34)cn2)cc1-c1ccccc1)C(=O)O,3000,10,> 100000,19.4,–
CSCC[C@H](NC(=O)c1ccc(NCc2cn(Cc3ccc(-c4ccccc4)cc3)cn2)cc1-c1ccccc1)C(=O)O,6000,12,> 100000,–,–
